What was measured:
[1] = molecular target: T1, HiBit-KRAS^G12C (Homo sapiens, UniProt P01116, G12C); experiment: HiBit degradation assay in SW1573 HiBit-KRas^G12C cells; format: cell-based; design: expressed in transfected cells; host or cells: SW1573 (clone E6), modified pcDNA3.1 vector, TK promoter; settings: 24 hours
Method in brief: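 HiBit-KRAS G12C degradation was measured after a 24 h compound exposure (titrated 10 μM–20 nM) in engineered SW1573 cells. Lytic HiBit luminescence, expressed relative to DMSO controls, yielded DC50 and Dmax from 4-parameter fits. Concentrations causing ≥50% loss in alamar blue viability were omitted as cytotoxic.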

[2] = molecular target: T1, HiBit-KRAS^G12C; experiment: HiBit degradation assay in MiaPaCa-2 HiBit-KRas^G12C cells; format: cell-based; settings: 24 hours
Method in brief: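 DC50 and Dmax come from 4-parameter fits of DMSO-normalized HiBit luminescence after 24 hours' exposure at 37° C to 10 μM–20 nM compound in 0.1% or 0.5% DMSO. Cells: MiaPaCa-2 carrying one endogenously HiBit-tagged KRAS^G12C allele; concentrations causing ≥50% […] viability loss (alamar blue) excluded.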

[3] = SW1573, read-out: KRas^G12C-HiBit (SW1573; 0.1% DMSO) Dmax**, SW1573 HiBit-KRas^G12C, 0.1% DMSO
[4] = SW1573 HiBit-KRas^G12C, 0.1% DMSO, read-out: KRas^G12C-HIBit (SW1573; 0.1% DMSO) DC50*
[5] = read-out: KRas^G12C-HiBiT (MiaPaCa; 0.1% DMSO) IC50, MiaPaCa-2 HiBit-KRas^G12C cells, 0.1% DMSO
[6] = SW1573, SW1573 HiBit-KRas^G12C, 0.5% DMSO, read-out: KRas^G12C-HiBiT (SW1573; 0.5% DMSO) Dmax**
[7] = read-out: KRas^G12C-HiBiT (SW1573; 0.5% DMSO) IC50***, SW1573 HiBit-KRas^G12C, 0.5% DMSO
[8] = MIA PaCa-2, MiaPaCa-2 HiBit-KRas^G12C cells, 0.5% DMSO, maximum degradation, read-out: KRas^G12C-HiBiT (MiaPaCa; 0.5% DMSO) DMax
[9] = read-out: KRas^G12C-HiBiT (MiaPaCa; 0.5% DMSO) IC50, MiaPaCa-2 HiBit-KRas^G12C cells, 0.5% DMSO
[10] = MiaPaCa-2 HiBit-KRas^G12C cells, 0.5% DMSO, maximum degradation
[11] = MIA PaCa-2, read-out: KRas^G12C-HiBiT (MiaPaCa; 0.1% DMSO) DMax, MiaPaCa-2 HiBit-KRas^G12C cells, 0.1% DMSO, maximum degradation

T1 sequence (P01116 1-186 isoform P01116-2 G12C limits assumed): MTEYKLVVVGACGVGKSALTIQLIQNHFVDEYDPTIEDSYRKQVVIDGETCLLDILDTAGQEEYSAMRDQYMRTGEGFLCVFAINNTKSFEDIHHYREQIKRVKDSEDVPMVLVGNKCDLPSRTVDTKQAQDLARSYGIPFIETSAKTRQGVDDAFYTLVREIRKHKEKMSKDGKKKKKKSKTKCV

| Dmax [1, 6] | DC50 [1, 7] | Dmax [2, 8] | DC50 [2, 9] | Compound | Dmax [1, 3] | DC50 [1, 4] | other results |
| --- | --- | --- | --- | --- | --- | --- | --- |
| – | – | – | – | C=CC(=O)N1CCN(c2nc(O[C@H](C)CN3CCN(CC4CN(CC(=O)N[C@H](C(=O)N5C[C@H](O)C[C@H]5C(=O)N[C@@H](C)c5ccc(-c6scnc6C)cc5)C(C)(C)C)C4)CC3)nc3c(F)c(-c4cc(O)cc5ccccc45)c(Cl)cc23)CC1 [Compound 28, (2S,4R)-1-[(2S)-2-{2-[3-({4-[(2R)-2-{[6-chloro-8-fluoro-7-(3-hydroxynaphthalen-1-yl)-4-[4-(prop-2-enoyl)piperazin-1-yl]quinazolin-2-yl]oxy}propyl]piperazin-1-yl}methyl)azetidin-1-yl]acetamido}-3,3-dimethylbutanoyl]-4-hydroxy-N-[(1S)-1-[4-(4-methyl-1,3-thiazol-5-yl)phenyl]ethyl]pyrrolidine-2-carboxamide] | < 35% | 0.1 to 1 µM | DC50 [2, 5]: > 1 µM |
| 35 to 70% | < 0.1 µM | 35 to 70% | < 0.1 µM | C=C(F)C(=O)N1CCN(c2nc(OCCN3CCC(C)(COc4cc([C@H](C(=O)N5C[C@H](O)C[C@H]5C(=O)N[C@@H](C)c5ccc(-c6ccnn6C)cc5)C(C)C)on4)CC3)nc3c(F)c(-c4cc(O)cc5ccccc45)c(Cl)cc23)C[C@@H]1CC#N (atropisomer, axis not shown) [Compound 124, (2S,4R)-1-[(2R)-2-[3-({1-[2-({6-chloro-4-[(3S)-3-(cyanomethyl)-4-(2-fluoroprop-2-enoyl)piperazin-1-yl]-8-fluoro-7-(3-hydroxynaphthalen-1-yl)quinazolin-2-yl}oxy)ethyl]-4-methylpiperidin-4-yl}methoxy)-1,2-oxazol-5-yl]-3-methylbutanoyl]-4-hydroxy-N-[(1S)-1-[4-(1-methyl-1H-pyrazol-5-yl)phenyl]ethyl]pyrrolidine-2-carboxamide] | – | – | – |
| > 70% | 0.1 to 1 µM | – | 0.1 to 1 µM | C=CC(=O)N1CCN(c2nc(OCCN3CCC(COc4cc([C@H](C(=O)N5C[C@H](O)C[C@H]5C(=O)N[C@@H](C)c5ccc(-c6scnc6C)cc5)C(C)C)on4)CC3)nc3c(F)c(-c4cc(O)cc5ccccc45)c(Cl)cc23)CC1 (atropisomer, axis not shown) [Compound 147, (2S,4R)-1-[(2R)-2-(3-{[1-(2-{[6-chloro-8-fluoro-7-(3-hydroxynaphthalen-1-yl)-4-[4-(prop-2-enoyl)piperazin-1-yl]quinazolin-2-yl]oxy}ethyl)piperidin-4-yl]methoxy}-1,2-oxazol-5-yl)-3-methylbutanoyl]-4-hydroxy-N-[(1S)-1-[4-(4-methyl-1,3-thiazol-5-yl)phenyl]ethyl]pyrrolidine-2-carboxamide] | – | – | KRas^G12C-HiBiT (MiaPaCa; 0.5% DMSO) DMax [2, 10]: B (35 < B < 70) |
| 35 to 70% | – | 35 to 70% | – | C=CC(=O)N1CCN(c2nc(O[C@H](C)CN3CCC(COCC(=O)N[C@H](C(=O)N4C[C@H](O)C[C@H]4C(=O)N[C@@H](C)c4ccc(-c5scnc5C)cc4)C(C)(C)C)CC3)nc3c2CCN(c2cc(O)cc4ccccc24)C3)C[C@@H]1CC#N [Compound 29, (2S,4R)-1-[(2S)-2-[2-({1-[(2R)-2-({4-[(3S)-3-(cyanomethyl)-4-(prop-2-enoyl)piperazin-1-yl]-7-(3-hydroxynaphthalen-1-yl)-5H,6H,7H,8H-pyrido[3,4-d]pyrimidin-2-yl}oxy)propyl]piperidin-4-yl}methoxy)acetamido]-3,3-dimethylbutanoyl]-4-hydroxy-N-[(1S)-1-[4-(4-methyl-1,3-thiazol-5-yl)phenyl]ethyl]pyrrolidine-2-carboxamide] | – | > 1 µM | Dmax ([1]; SW1573, SW1573 HiBit-KRas^G12C, 0.1% DMSO, read-out: KRas^G12C-HiBit (SW1573; 0.1% DMSO) Dmax**): 35 to 70%; Dmax ([2]; MIA PaCa-2, MiaPaCa-2 HiBit-KRas^G12C cells, 0.1% DMSO, maximum degradation, read-out: KRas^G12C-HiBiT (MiaPaCa; 0.1% DMSO) DMax): 35 to 70% |
| – | – | – | – | C=CC(=O)N1CCN(c2nc(OCCN3CCC(COCC(=O)N[C@H](C(=O)N4C[C@H](O)C[C@H]4C(=O)N[C@@H](C)c4ccc(-c5scnc5C)cc4)C(C)(C)C)CC3)nc3c(F)c(-c4cc(O)cc5ccccc45)c(Cl)cc23)CC1 (atropisomer, axis not shown) [Compound 9, (2S,4R)-1-[(2S)-2-(2-{[1-(2-{[6-chloro-8-fluoro-7-(3-hydroxynaphthalen-1-yl)-4-[4-(prop-2-enoyl)piperazin-1-yl]quinazolin-2-yl]oxy}ethyl)piperidin-4-yl]methoxy}acetamido)-3,3-dimethylbutanoyl]-4-hydroxy-N-[(1S)-1-[4-(4-methyl-1,3-thiazol-5-yl)phenyl]ethyl]pyrrolidine-2-carboxamide] | – | 0.1 to 1 µM | KRas^G12C-HiBit (SW1573; 0.1% DMSO) Dmax** ([1]; SW1573 HiBit-KRas^G12C, 0.1% DMSO): A (A ≥ 70); KRas^G12C-HiBiT (MiaPaCa; 0.1% DMSO) DMax ([2]; MiaPaCa-2 HiBit-KRas^G12C cells, 0.1% DMSO, maximum degradation): A (A ≥ 70); KRas^G12C-HiBiT (MiaPaCa; 0.5% DMSO) DMax [2, 10]: A (A ≥ 70) |
| – | – | – | – | C=C(F)C(=O)N1CCN(c2nc(OCCN3CCC(COCC(=O)N[C@H](C(=O)N4C[C@H](O)C[C@H]4C(=O)N[C@@H](C)c4ccc(-c5scnc5C)cc4)C(C)(C)C)CC3)nc3c(F)c(-c4cc(O)cc5ccccc45)c(Cl)cc23)C[C@@H]1CC#N [Compound 15, (2S,4R)-1-[(2S)-2-[2-({1-[2-({6-chloro-4-[(3S)-3-(cyanomethyl)-4-(2-fluoroprop-2-enoyl)piperazin-1-yl]-8-fluoro-7-(3-hydroxynaphthalen-1-yl)quinazolin-2-yl}oxy)ethyl]piperidin-4-yl}methoxy)acetamido]-3,3-dimethylbutanoyl]-4-hydroxy-N-[(1S)-1-[4-(4-methyl-1,3-thiazol-5-yl)phenyl]ethyl]pyrrolidine-2-carboxamide] | > 70% | 0.1 to 1 µM | Dmax [2, 11]: 35 to 70% |
| 35 to 70% | < 0.1 µM | > 70% | 0.1 to 1 µM | C=C(F)C(=O)N1CCN(c2nc(OCCN3CCC(F)(COc4cc([C@H](C(=O)N5C[C@H](O)C[C@H]5C(=O)N[C@@H](C)c5ccc(-c6scnc6C)cc5)C(C)C)on4)CC3)nc3c(F)c(-c4cc(O)cc5ccccc45)c(Cl)cc23)C[C@@H]1CC#N (atropisomer, axis not shown) [Compound 121, (2S,4R)-1-[(2R)-2-[3-({1-[2-({6-chloro-4-[(3S)-3-(cyanomethyl)-4-(2-fluoroprop-2-enoyl)piperazin-1-yl]-8-fluoro-7-(3-hydroxynaphthalen-1-yl)quinazolin-2-yl}oxy)ethyl]-4-fluoropiperidin-4-yl}methoxy)-1,2-oxazol-5-yl]-3-methylbutanoyl]-4-hydroxy-N-[(1S)-1-[4-(4-methyl-1,3-thiazol-5-yl)phenyl]ethyl]pyrrolidine-2-carboxamide] | – | – | – |
| > 70% | > 1 µM | – | > 1 µM | C=CC(=O)N1CCN(c2nc(OCCN3CCC(COCC(=O)N[C@H](C(=O)N4C[C@@H](O)C[C@H]4C(=O)N[C@@H](C)c4ccc(-c5scnc5C)cc4)C(C)(C)C)CC3)nc3c(F)c(-c4cccc5cccc(C)c45)c(Cl)cc23)C[C@@H]1CC#N [Compound 97] | – | – | – |
| – | – | – | – | C=CC(=O)N1CCN(c2nc(O[C@H](C)CN3CCN(C4CN(CC(=O)N[C@H](C(=O)N5C[C@H](O)C[C@H]5C(=O)N[C@@H](C)c5ccc(-c6scnc6C)cc5)C(C)(C)C)C4)CC3)nc3c(F)c(-c4cc(O)cc5ccccc45)c(Cl)cc23)CC1 [Compound 40, (2S,4R)-1-[(2S)-2-[2-(3-{4-[(2R)-2-{[6-chloro-8-fluoro-7-(3-hydroxynaphthalen-1-yl)-4-[4-(prop-2-enoyl)piperazin-1-yl]quinazolin-2-yl]oxy}propyl]piperazin-1-yl}azetidin-1-yl)acetamido]-3,3-dimethylbutanoyl]-4-hydroxy-N-[(1S)-1-[4-(4-methyl-1,3-thiazol-5-yl)phenyl]ethyl]pyrrolidine-2-carboxamide] | 35 to 70% | > 1 µM | Dmax ([1]; SW1573, read-out: KRas^G12C-HiBiT (SW1573; 0.5% DMSO) Dmax**, SW1573 HiBit-KRas^G12C, 0.5% DMSO): 35 to 70%; Dmax [2, 11]: < 35%; Dmax ([2]; MIA PaCa-2, read-out: KRas^G12C-HiBiT (MiaPaCa; 0.5% DMSO) DMax, MiaPaCa-2 HiBit-KRas^G12C cells, 0.5% DMSO, maximum degradation): < 35%; DC50 [2, 5]: 0.1 to 1 µM |
